Reference: PubChem BioAssay AID270 (DTP/NCI, 2004)
Where “and” joins values, the source holds several entries; their conditions need not be identical. Identical values can stand only once. Inconclusive results are not listed.

System: BDF1 mice, s.c. Lewis lung carcinoma, T/C %
Test: NCI In Vivo Anticancer Drug Screen. Data for tumor model Lewis Lung Carcinoma (subcutaneous) in B6D2F1 (BDF1) mice
Outline: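 Tumor-bearing mice were treated with test compound, and either survival or tumor size was recorded. Values are the treated-group measurement divided by that of the vehicle-treated control group.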

[1] = endpoint: median survival time, dose: 200.0 mg/kg/injection, schedule: Q01DX009 (ip), vehicle: Klucel (hydroxypropylcellulose) (HPC), higher = longer survival

## CC(=O)c1c(O)c(C)c(O)c(Cc2c(O)c3c(c(C(=O)/C=C/c4ccccc4)c2O)OC(C)(C)C=C3)c1O
endpoint: mean tumor weight, dose: 15.0 mg/kg/injection, schedule: Q01DX011 (ip), vehicle: saline, higher = larger tumour
  T/C: 96 % of control
endpoint: mean tumor weight, dose: 22.0 mg/kg/injection, schedule: Q01DX011 (ip), vehicle: saline, higher = larger tumour
  T/C: 82 % of control
endpoint: mean tumor weight, dose: 35.0 mg/kg/injection, schedule: Q01DX011 (ip), vehicle: saline, higher = larger tumour
  T/C: 79 % of control

## CC(=O)Nc1cc2c(cc1Br)-c1ccccc1C2O (centres undefined)
endpoint: mean tumor weight, dose: 24.0 mg/kg/injection, schedule: Q01DX011 (ip), vehicle: saline, higher = larger tumour
  T/C: 47 % of control and 62 % of control and 69 % of control
endpoint: mean tumor weight, dose: 55.0 mg/kg/injection, schedule: Q01DX011 (ip), vehicle: saline, higher = larger tumour
  T/C: 31 % of control and 52 % of control and 53 % of control
endpoint: mean tumor weight, dose: 444.0 mg/kg/injection, schedule: Q01DX011 (ip), vehicle: saline, higher = larger tumour
  T/C: 26 % of control
endpoint: mean tumor weight, dose: 666.0 mg/kg/injection, schedule: Q01DX011 (ip), vehicle: saline, higher = larger tumour
  T/C: 19 % of control

## O=NN(CCCl)C(=O)N[C@H]1CCC[C@@H](C(=O)O)C1
endpoint: median survival time, dose: 14.0 mg/kg/injection, schedule: Q01DX001 (ip), vehicle: Klucel (hydroxypropylcellulose) (HPC), higher = longer survival
  T/C: 88 % of control
endpoint: median survival time, dose: 32.0 mg/kg/injection, schedule: Q01DX001 (ip), vehicle: Klucel (hydroxypropylcellulose) (HPC), higher = longer survival
  T/C: 93 % of control

## N=C(N)c1ccc(OCCCOc2ccc(C(=N)N)cc2Br)c(Br)c1
endpoint: median survival time, dose: 6.25 mg/kg/injection, schedule: Q01DX009 (ip), vehicle: saline, higher = longer survival
  T/C: 122 % of control

## CC(C)C1(C(=O)NNC(=O)CCCc2ccc(N(CCCl)CCCl)cc2)OC2(O)CCCCCN2C1=O (centres undefined)
endpoint: median survival time, dose: 3.12 mg/kg/injection, schedule: Q04DX003 (ip), vehicle: DMSO, higher = longer survival
  T/C: 111 % of control
endpoint: median survival time, dose: 6.25 mg/kg/injection, schedule: Q04DX003 (ip), vehicle: DMSO, higher = longer survival
  T/C: 116 % of control
endpoint: median survival time, dose: 12.5 mg/kg/injection, schedule: Q04DX003 (ip), vehicle: DMSO, higher = longer survival
  T/C: 102 % of control

## C/C=C/c1cc2n(c1)C(=O)c1cc(OC3OC(C)C(NC)C(C)(O)C3O)c(C)c(O)c1NC2O (centres undefined)
endpoint: median survival time, dose: 2.0 micrograms/kg/injection, schedule: Q04DX003 (ip), vehicle: saline, higher = longer survival
  T/C: 102 % of control
endpoint: median survival time, dose: 4.0 micrograms/kg/injection, schedule: Q04DX003 (ip), vehicle: saline, higher = longer survival
  T/C: 92 % of control
endpoint: median survival time, dose: 8.0 micrograms/kg/injection, schedule: Q04DX003 (ip), vehicle: saline, higher = longer survival
  T/C: 103 % of control
endpoint: median survival time, dose: 16.0 micrograms/kg/injection, schedule: Q04DX003 (ip), vehicle: saline, higher = longer survival
  T/C: 95 % of control

## CC1OC(O[C@@H]2C=C3CC[C@@H]4[C@H](CC[C@]5(C)[C@@H](c6ccc(=O)oc6)CC[C@]45O)[C@@]3(C)CC2)C(O)C(O)C1O (some centres undefined)
endpoint: mean tumor weight, dose: 1.25 mg/kg/injection, schedule: Q01DX011 (ip), vehicle: saline, higher = larger tumour
  T/C: 114 % of control
endpoint: mean tumor weight, dose: 2.5 mg/kg/injection, schedule: Q01DX011 (ip), vehicle: saline, higher = larger tumour
  T/C: 90 % of control
endpoint: mean tumor weight, dose: 5.0 mg/kg/injection, schedule: Q01DX011 (ip), vehicle: saline, higher = larger tumour
  T/C: 64 % of control
endpoint: mean tumor weight, dose: 10.0 mg/kg/injection, schedule: Q01DX011 (ip), vehicle: saline, higher = larger tumour
  T/C: 83 % of control

## C[C@]12CCC(=O)C=C1CC[C@@H]1[C@@H]2[C@@H](O)C[C@@]2(C)[C@H]1CC[C@]2(O)C(=O)CO
endpoint: median survival time, dose: 40.0 mg/kg/injection, schedule: Q02DX009 (ip), vehicle: Klucel (hydroxypropylcellulose) (HPC), higher = longer survival
  T/C: 98 % of control
endpoint: median survival time, dose: 80.0 mg/kg/injection, schedule: Q02DX009 (ip), vehicle: Klucel (hydroxypropylcellulose) (HPC), higher = longer survival
  T/C: 96 % of control
endpoint: median survival time, dose: 160.0 mg/kg/injection, schedule: Q02DX009 (ip), vehicle: Klucel (hydroxypropylcellulose) (HPC), higher = longer survival
  T/C: 97 % of control
endpoint: median survival time, dose: 640.0 mg/kg/injection, schedule: Q02DX009 (ip), vehicle: Klucel (hydroxypropylcellulose) (HPC), higher = longer survival
  T/C: 88 % of control

## COc1cc(NS(C)(=O)=O)ccc1Nc1c2ccccc2nc2ccccc12
endpoint: median survival time, dose: 0.13 mg/kg/injection, schedule: Q01DX009 (ip), vehicle: other, higher = longer survival
  T/C: 117 % of control
endpoint: median survival time, dose: 0.5 mg/kg/injection, schedule: Q01DX009 (ip), vehicle: other, higher = longer survival
  T/C: 118 % of control
endpoint: median survival time, dose: 0.78 mg/kg/injection, schedule: Q01DX009 (ip), vehicle: saline, higher = longer survival
  T/C: 96 % of control
endpoint: median survival time, dose: 1.25 mg/kg/injection, schedule: Q01DX011 (ip), vehicle: Klucel (hydroxypropylcellulose) (HPC), higher = longer survival
  T/C: 91 % of control
endpoint: median survival time, dose: 1.56 mg/kg/injection, schedule: Q01DX009 (ip), vehicle: saline, higher = longer survival
  T/C: 100 % of control
endpoint: median survival time, dose: 2.5 mg/kg/injection, schedule: Q01DX011 (ip), vehicle: Klucel (hydroxypropylcellulose) (HPC), higher = longer survival
  T/C: 96 % of control
endpoint: median survival time, dose: 3.12 mg/kg/injection, schedule: Q01DX009 (ip), vehicle: Klucel (hydroxypropylcellulose) (HPC), higher = longer survival
  T/C: 118 % of control
endpoint: median survival time, dose: 3.13 mg/kg/injection, schedule: Q01DX009 (ip), vehicle: saline, higher = longer survival
  T/C: 103 % of control and 107 % of control
endpoint: median survival time, dose: 6.25 mg/kg/injection, schedule: Q01DX009 (ip), vehicle: Klucel (hydroxypropylcellulose) (HPC), higher = longer survival
  T/C: 115 % of control
endpoint: median survival time, dose: 12.5 mg/kg/injection, schedule: Q01DX009 (ip), vehicle: Klucel (hydroxypropylcellulose) (HPC), higher = longer survival
  T/C: 214 % of control
endpoint: median tumor weight (est.), dose: 1.25 mg/kg/injection, schedule: Q01DX011 (ip), vehicle: Klucel (hydroxypropylcellulose) (HPC), higher = larger tumour
  T/C: 88 % of control
endpoint: median tumor weight (est.), dose: 2.5 mg/kg/injection, schedule: Q01DX011 (ip), vehicle: Klucel (hydroxypropylcellulose) (HPC), higher = larger tumour
  T/C: 110 % of control
endpoint: median tumor weight (est.), dose: 5.0 mg/kg/injection, schedule: Q01DX011 (ip), vehicle: Klucel (hydroxypropylcellulose) (HPC), higher = larger tumour
  T/C: 504 % of control

## COc1cc(N(CCCl)CCCl)ccc1NC(=O)c1ccccc1
endpoint: mean tumor weight, dose: 12.5 mg/kg/injection, schedule: Q01DX011 (ip), vehicle: Klucel (hydroxypropylcellulose) (HPC), higher = larger tumour
  T/C: 68 % of control
endpoint: mean tumor weight, dose: 25.0 mg/kg/injection, schedule: Q01DX011 (ip), vehicle: Klucel (hydroxypropylcellulose) (HPC), higher = larger tumour
  T/C: 48 % of control

## CCCCOC(=O)Nc1ccc(OCC)cc1
endpoint: mean tumor weight, dose: 35.0 mg/kg/injection, schedule: Q01DX011 (ip), vehicle: carboxymethylcellulose (CMC), higher = larger tumour
  T/C: 63 % of control
endpoint: mean tumor weight, dose: 70.0 mg/kg/injection, schedule: Q01DX011 (ip), vehicle: carboxymethylcellulose (CMC), higher = larger tumour
  T/C: 85 % of control
endpoint: mean tumor weight, dose: 140.0 mg/kg/injection, schedule: Q01DX011 (ip), vehicle: carboxymethylcellulose (CMC), higher = larger tumour
  T/C: 68 % of control
endpoint: mean tumor weight, dose: 280.0 mg/kg/injection, schedule: Q01DX011 (ip), vehicle: carboxymethylcellulose (CMC), higher = larger tumour
  T/C: 69 % of control

## COC1=C(N)C(=O)c2nc(-c3nc(C(=O)O)c(C)c(-c4ccc(OC)c(OC)c4O)c3N)ccc2C1=O
endpoint: mean tumor weight, dose: 0.06 mg/kg/injection, schedule: Q01DX011 (ip), vehicle: water, higher = larger tumour
  T/C: 68 % of control
endpoint: mean tumor weight, dose: 0.12 mg/kg/injection, schedule: Q01DX011 (ip), vehicle: water, higher = larger tumour
  T/C: 56 % of control
endpoint: mean tumor weight, dose: 0.25 mg/kg/injection, schedule: Q01DX011 (ip), vehicle: water, higher = larger tumour
  T/C: 42 % of control
endpoint: median survival time, dose: 62.5 micrograms/kg/injection, schedule: Q01DX009 (ip), vehicle: saline, higher = longer survival
  T/C: 98 % of control
endpoint: median survival time, dose: 125.0 micrograms/kg/injection, schedule: Q01DX009 (ip), vehicle: saline, higher = longer survival
  T/C: 112 % of control
endpoint: median survival time, dose: 250.0 micrograms/kg/injection, schedule: Q01DX009 (ip), vehicle: saline, higher = longer survival
  T/C: 98 % of control

## O=P(c1ccccc1)(N1CC1)N1CC1
endpoint: mean tumor weight, dose: 11.0 mg/kg/injection, schedule: Q01DX011 (ip), vehicle: saline, higher = larger tumour
  T/C: 65 % of control
endpoint: mean tumor weight, dose: 17.0 mg/kg/injection, schedule: Q01DX011 (ip), vehicle: saline, higher = larger tumour
  T/C: 93 % of control
endpoint: mean tumor weight, dose: 25.0 mg/kg/injection, schedule: Q01DX011 (ip), vehicle: saline, higher = larger tumour
  T/C: 69 % of control
endpoint: mean tumor weight, dose: 38.0 mg/kg/injection, schedule: Q01DX011 (ip), vehicle: saline, higher = larger tumour
  T/C: 38 % of control
endpoint: mean tumor weight, dose: 76.0 mg/kg/injection, schedule: Q01DX011 (ip), vehicle: saline, higher = larger tumour
  T/C: 52 % of control

## ClCCN(CCCl)CC(Cl)COc1cccc2ccccc12 (centres undefined)
endpoint: median survival time, dose: 1.25 mg/kg/injection, schedule: Q01DX009 (ip), vehicle: Klucel (hydroxypropylcellulose) (HPC), higher = longer survival
  T/C: 92 % of control and 103 % of control
endpoint: median survival time, dose: 2.5 mg/kg/injection, schedule: Q01DX009 (ip), vehicle: Klucel (hydroxypropylcellulose) (HPC), higher = longer survival
  T/C: 96 % of control and 103 % of control
endpoint: median survival time, dose: 5.0 mg/kg/injection, schedule: Q01DX009 (ip), vehicle: Klucel (hydroxypropylcellulose) (HPC), higher = longer survival
  T/C: 97 % of control and 101 % of control
endpoint: median survival time, dose: 10.0 mg/kg/injection, schedule: Q01DX009 (ip), vehicle: Klucel (hydroxypropylcellulose) (HPC), higher = longer survival
  T/C: 92 % of control and 110 % of control
endpoint: median survival time, dose: 20.0 mg/kg/injection, schedule: Q01DX009 (ip), vehicle: Klucel (hydroxypropylcellulose) (HPC), higher = longer survival
  T/C: 96 % of control and 106 % of control
endpoint: median survival time, dose: 40.0 mg/kg/injection, schedule: Q01DX009 (ip), vehicle: Klucel (hydroxypropylcellulose) (HPC), higher = longer survival
  T/C: 97 % of control

## Nc1ccc(N=Nc2ccccc2)c(N)c1
endpoint: median survival time, dose: 2.25 mg/kg/injection, schedule: Q01DX009 (ip), vehicle: Klucel (hydroxypropylcellulose) (HPC), higher = longer survival
  T/C: 109 % of control
endpoint: median survival time, dose: 4.5 mg/kg/injection, schedule: Q01DX009 (ip), vehicle: Klucel (hydroxypropylcellulose) (HPC), higher = longer survival
  T/C: 102 % of control
endpoint: median survival time, dose: 9.0 mg/kg/injection, schedule: Q01DX009 (ip), vehicle: Klucel (hydroxypropylcellulose) (HPC), higher = longer survival
  T/C: 106 % of control
endpoint: median survival time, dose: 18.0 mg/kg/injection, schedule: Q01DX009 (ip), vehicle: Klucel (hydroxypropylcellulose) (HPC), higher = longer survival
  T/C: 101 % of control
endpoint: median survival time, dose: 75.0 mg/kg/injection, schedule: Q01DX009 (ip), vehicle: Klucel (hydroxypropylcellulose) (HPC), higher = longer survival
  T/C: 99 % of control
[1]
  T/C: 97 % of control

## CN(/N=N/c1nc[nH]c1C(N)=O)C(C)(C)C
[1]
  T/C: 109 % of control
endpoint: median survival time, dose: 400.0 mg/kg/injection, schedule: Q01DX009 (ip), vehicle: Klucel (hydroxypropylcellulose) (HPC), higher = longer survival
  T/C: 90 % of control
